# Data taken from patent US11534412B2, “Application of totarol and pharmaceutical composition containing totarol” (Emergopharm SP. Z O.O. SP.K., priority 2017, dated 2022).
# Tested on: Enterococcus faecalis - clinical strain
# Assay: Determination of the MIC value of totarol, broth dilution in 96-well plates with OD and quantitative culture
# Format: cell-based
# Details: for OD, average of 3 measurements: 620 nm
# Experimental: Test of antibacterial activity of totarol using DMI (dimethylisosorbide) as a solvent.
# 1 ml of the suspension was collected to 9 ml of a TSB broth ([…]). Suspensions with a dilution of 10^−6 were prepared in the described way. A suspension with a cell density of 10^5 cfu/ml was selected for further investigations. For each strain, 2 96-well plates were prepared: the first one was intended for the OD measurement, the second one—for quantitative culture on solid media. • A/ to wells B1-D1, B2-D2 and B-D 4-11, 100 µl of the broth were added; • B/ to wells B3-D3, 200 µl of the broth were added; • C/ to wells B1-D1, 1 µl of stock I was added; • D/ to wells B2-D2, 1 µl of stock II was added; • E/ to wells B3-D3, 2 µl of stock III were added. Using a multichannel pipette, 100 µl of the sample were collected from each of the B3-D3 wells and placed in wells B4-D4 (mixing by sucking the content in and letting it out for 5 times). The pipette tips were replaced and 100 µl of the content were collected from of the B4-D4 wells, and placed in wells B5-D5, mixing as previously. These operations were repeated through the wells B11-D11. The content in the B11-D11 wells was mixed, and 100 µl of the fluid were collected and discarded. This way, a series of dilutions of totarol samples in DMI in the range of 0.32% to 0.0004% was obtained. Then, 100 µl of a corresponding bacterial culture were added to the wells B, C, D 1-11. In consequence, a change in the final concentration range occurred, to 0.16%-0.0002%. Control Preparation: • Negative control: 100 µl of the broth+1 pl DMI were added to the Al well. • Positive control (I): 100 µl of the broth with the bacterial culture were added to the wells E1-G1. • Diluent positive control (II): 100 µl of the broth with the bacterial culture+1 pl DMI were added to the wells E2-G2. The OD value in the individual wells was read at the wavelength of 620 nm (read time 0). From the second 96-well plate, a culture was inoculated by a quantitative method from every dilution onto a well with a proper solid medium, and incubated for 24 h at 37° C. under aerobic or anaerobic conditions, depending on the strain. The plates were incubated under aerobic conditions or in an atmosphere of an elevated CO2 concentration (for the strains requiring it) in an incubator at 37° C. The OD was read after 8 h, 16 h, and 24 h, respectively. Before every OD measurement, the contents of the wells were mixed delicately. In parallel to the OD readout, cultures we inoculated from the second 96-well plate, from every dilution, into plates with a proper solid medium, and incubated for 24 h at 37° C., under aerobic or anaerobic conditions. For the analysis of the experimental results, an average value of the OD measurement obtained from three repetitions in the individual times (0, 8, 16, and 24 h) for the individual microbes (Gardnerella vaginalis, Streptococcus agalactiae, Enterococcus faecalis, Lactobacillus gasseri/plantarum) was taken. Additionally, the number of bacteria grown on solid media was taken into account. The results of the tests confirm the specific, concentration-dependent selectiveness, and the high antibacterial effectiveness of totarol against the pathogenic microorganisms: Gardnerella vaginalis, Streptococcus agalactiae, Enterococcus faecalis at low MIC values safe for bacteria of the Lactobacillus genus.
compound,measurement,setting,value
"CC(C)c1c(O)ccc2c1CC[C@H]1C(C)(C)CCC[C@]21C [Totarol, totarol]",MIC value,E. faecalis,0.0025%
same,Inoculation cfu/ml,"totarol 0.0002%, 0 h",4 × 10^5 cfu/ml
same,"OD, average of 3 measurements","totarol 0.0002%, 0 h",0.292
same,Inoculation cfu/ml,"totarol 0.0002%, 8 h",4.1 × 10^5 cfu/ml
same,"OD, average of 3 measurements","totarol 0.0002%, 8 h",0.295
same,Inoculation cfu/ml,"totarol 0.0002%, 16 h",2.1 × 10^6 cfu/ml
same,"OD, average of 3 measurements","totarol 0.0002%, 16 h",0.490
same,Inoculation cfu/ml,"totarol 0.0002%, 24 h",1.6 × 10^7 cfu/ml
same,"OD, average of 3 measurements","totarol 0.0002%, 24 h",0.681
same,Inoculation cfu/ml,"totarol 0.0004%, 0 h",3 × 10^5 cfu/ml
same,"OD, average of 3 measurements","totarol 0.0004%, 0 h",0.298
same,Inoculation cfu/ml,"totarol 0.0004%, 8 h",2.1 × 10^5 cfu/ml
same,"OD, average of 3 measurements","totarol 0.0004%, 8 h",0.303
same,Inoculation cfu/ml,"totarol 0.0004%, 16 h",1.1 × 10^6 cfu/ml
same,"OD, average of 3 measurements","totarol 0.0004%, 16 h",0.491
same,Inoculation cfu/ml,"totarol 0.0004%, 24 h",1.9 × 10^7 cfu/ml
same,"OD, average of 3 measurements","totarol 0.0004%, 24 h",0.677
same,Inoculation cfu/ml,"totarol 0.0007%, 0 h",2.5 × 10^5 cfu/ml
same,"OD, average of 3 measurements","totarol 0.0007%, 0 h",0.288
same,Inoculation cfu/ml,"totarol 0.0007%, 8 h",3.1 × 10^5 cfu/ml
same,"OD, average of 3 measurements","totarol 0.0007%, 8 h",0.291
same,Inoculation cfu/ml,"totarol 0.0007%, 16 h",3.8 × 10^5 cfu/ml
same,"OD, average of 3 measurements","totarol 0.0007%, 16 h",0.445
same,Inoculation cfu/ml,"totarol 0.0007%, 24 h",2.1 × 10^7 cfu/ml
same,"OD, average of 3 measurements","totarol 0.0007%, 24 h",0.602
same,Inoculation cfu/ml,"totarol 0.0013%, 0 h",4 × 10^5 cfu/ml
same,"OD, average of 3 measurements","totarol 0.0013%, 0 h",0.293
same,Inoculation cfu/ml,"totarol 0.0013%, 8 h",6 × 10^4 cfu/ml
same,"OD, average of 3 measurements","totarol 0.0013%, 8 h",0.297
same,Inoculation cfu/ml,"totarol 0.0013%, 16 h",6 × 10^4 cfu/ml
same,"OD, average of 3 measurements","totarol 0.0013%, 16 h",0.399
same,Inoculation cfu/ml,"totarol 0.0013%, 24 h",1 × 10^7 cfu/ml
same,"OD, average of 3 measurements","totarol 0.0013%, 24 h",0.549
same,Inoculation cfu/ml,"totarol 0.0025%, 0 h",5 × 10^5 cfu/ml
same,"OD, average of 3 measurements","totarol 0.0025%, 0 h",0.284
same,Inoculation cfu/ml,"totarol 0.0025%, 8 h",0 cfu/ml
same,"OD, average of 3 measurements","totarol 0.0025%, 8 h",0.297
same,Inoculation cfu/ml,"totarol 0.0025%, 16 h",0 cfu/ml
same,"OD, average of 3 measurements","totarol 0.0025%, 16 h",0.295
same,Inoculation cfu/ml,"totarol 0.0025%, 24 h",0 cfu/ml
same,"OD, average of 3 measurements","totarol 0.0025%, 24 h",0.302
same,Inoculation cfu/ml,"totarol 0.005%, 0 h",6 × 10^5 cfu/ml
same,"OD, average of 3 measurements","totarol 0.005%, 0 h",0.302
same,Inoculation cfu/ml,"totarol 0.005%, 8 h",0 cfu/ml
same,"OD, average of 3 measurements","totarol 0.005%, 8 h",0.349
same,Inoculation cfu/ml,"totarol 0.005%, 16 h",0 cfu/ml
same,"OD, average of 3 measurements","totarol 0.005%, 16 h",0.320
same,Inoculation cfu/ml,"totarol 0.005%, 24 h",0 cfu/ml
same,"OD, average of 3 measurements","totarol 0.005%, 24 h",0.296
same,Inoculation cfu/ml,"totarol 0.01%, 0 h",4.1 × 10^5 cfu/ml
same,"OD, average of 3 measurements","totarol 0.01%, 0 h",0.302
same,Inoculation cfu/ml,"totarol 0.01%, 8 h",0 cfu/ml
same,"OD, average of 3 measurements","totarol 0.01%, 8 h",0.419
same,Inoculation cfu/ml,"totarol 0.01%, 16 h",0 cfu/ml
same,"OD, average of 3 measurements","totarol 0.01%, 16 h",0.368
same,Inoculation cfu/ml,"totarol 0.01%, 24 h",0 cfu/ml
same,"OD, average of 3 measurements","totarol 0.01%, 24 h",0.306
same,Inoculation cfu/ml,"totarol 0.02%, 0 h",3.1 × 10^5 cfu/ml
same,"OD, average of 3 measurements","totarol 0.02%, 0 h",0.322
same,Inoculation cfu/ml,"totarol 0.02%, 8 h",0 cfu/ml
same,"OD, average of 3 measurements","totarol 0.02%, 8 h",0.384
same,Inoculation cfu/ml,"totarol 0.02%, 16 h",0 cfu/ml
same,"OD, average of 3 measurements","totarol 0.02%, 16 h",0.374
same,Inoculation cfu/ml,"totarol 0.02%, 24 h",0 cfu/ml
same,"OD, average of 3 measurements","totarol 0.02%, 24 h",0.371
same,Inoculation cfu/ml,"totarol 0.04%, 0 h",2.6 × 10^5 cfu/ml
same,"OD, average of 3 measurements","totarol 0.04%, 0 h",0.552
same,Inoculation cfu/ml,"totarol 0.04%, 8 h",0 cfu/ml
same,"OD, average of 3 measurements","totarol 0.04%, 8 h",0.667
same,Inoculation cfu/ml,"totarol 0.04%, 16 h",0 cfu/ml
same,"OD, average of 3 measurements","totarol 0.04%, 16 h",0.555
same,Inoculation cfu/ml,"totarol 0.04%, 24 h",0 cfu/ml
same,"OD, average of 3 measurements","totarol 0.04%, 24 h",0.538
same,Inoculation cfu/ml,"totarol 0.08%, 0 h",3.2 × 10^5 cfu/ml
same,"OD, average of 3 measurements","totarol 0.08%, 0 h",0.448
same,Inoculation cfu/ml,"totarol 0.08%, 8 h",0 cfu/ml
same,"OD, average of 3 measurements","totarol 0.08%, 8 h",0.539
same,Inoculation cfu/ml,"totarol 0.08%, 16 h",0 cfu/ml
same,"OD, average of 3 measurements","totarol 0.08%, 16 h",0.499
same,Inoculation cfu/ml,"totarol 0.08%, 24 h",0 cfu/ml
same,"OD, average of 3 measurements","totarol 0.08%, 24 h",0.491
same,Inoculation cfu/ml,"totarol 0.16%, 0 h",6 × 10^5 cfu/ml
same,"OD, average of 3 measurements","totarol 0.16%, 0 h",0.638
same,Inoculation cfu/ml,"totarol 0.16%, 8 h",0 cfu/ml
same,"OD, average of 3 measurements","totarol 0.16%, 8 h",0.651
same,Inoculation cfu/ml,"totarol 0.16%, 16 h",0 cfu/ml
same,"OD, average of 3 measurements","totarol 0.16%, 16 h",0.510
same,Inoculation cfu/ml,"totarol 0.16%, 24 h",0 cfu/ml
same,"OD, average of 3 measurements","totarol 0.16%, 24 h",0.369
